Test results reported in patent US20050130232A1, “Methods of screening for compounds that modulate hormone receptor activity” (Allergan, Inc., priority 2001, published 2005).

What was measured:
[1] = target: T1, protein kinase A activity associated with RXRα (Homo sapiens, UniProt P19793); assay: Protein kinase A activity in anti-Flag immunoprecipitates of PH-RXRα or RXRα transfected HEK 293 cells, synthetic peptide substrate; type: cell-based; settings: Flag-RXRα lacking pleckstrin homology domain, 10^-7 M, substrate LRRASLG, vs control vehicle
T1 sequence (P19793 1-462): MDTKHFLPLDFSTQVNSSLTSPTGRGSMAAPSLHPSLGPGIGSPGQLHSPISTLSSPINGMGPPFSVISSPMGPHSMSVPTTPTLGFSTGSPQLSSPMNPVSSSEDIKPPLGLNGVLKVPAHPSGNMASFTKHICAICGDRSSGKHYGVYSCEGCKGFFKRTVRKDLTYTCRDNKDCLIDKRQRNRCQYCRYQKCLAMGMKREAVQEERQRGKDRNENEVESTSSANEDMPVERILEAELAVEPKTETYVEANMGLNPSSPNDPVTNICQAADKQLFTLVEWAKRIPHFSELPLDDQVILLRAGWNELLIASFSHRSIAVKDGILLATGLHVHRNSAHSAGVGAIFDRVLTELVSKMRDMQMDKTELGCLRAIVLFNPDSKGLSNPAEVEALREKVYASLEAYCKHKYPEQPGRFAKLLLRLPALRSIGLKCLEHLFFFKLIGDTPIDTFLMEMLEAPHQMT
Protocol: 293 cells were transfected with PH-RXRα. Sample 1: 0.1% DMSO (10 minutes). […] Sample 3: 0.1% DMSO (30 minutes).
Sample 1: 0.1% DMSO (10 minutes). […] Sample 3: 0.1% DMSO (30 minutes). […] Sample 5: No immunoprecipitate.
Sample 1: 0.1% DMSO. […] Sample 3: 0.1% DMSO with PKA inhibitor. […] Sample 5: 0.1% DMSO.
Following immunoprecipitation with anti-Flag antibody, the synthetic PKA substrate, LRRASLG (SEQ ID NO: 59), was added to the immunoprecipitate along with γ-ATP.
HEK 293 were cultured and transfected essentially as described above. Immunoprecipitates were prepared using the anti-Flag antibody, M2, as described above. Assays for protein kinase A activity were performed as follows. Immunoprecipitated complexes were resuspended in 40 μl of Kinase Assay Buffer (30 mM Tris-HCl, pH 7.4 and 10 mM MgCl2). Kinase reactions were initiated by addition of 10 μl of 500 μM synthetic peptide LRRASLG (SEQ ID NO: 59) or […] (SEQ ID NO: 60) prepared by Upstate Biotechnology (Lake Placid, N.Y.) and addition of 50 μM [γ-^32P]ATP (10 μCi) to the immune-complexes. […]
Incorporated ^32P was separated from free label by applying the reaction mixture onto P81 phosphocellulose paper and subsequently washing the paper three times with 0.75% phosphoric acid and once with acetone. Protein kinase reaction samples were analyzed in a scintillation counter to determine the amount of ^32P-incorporation.

[2] = target: T2, RXRα phosphorylation by protein kinase A (Homo sapiens, UniProt P19793); assay: Phosphorylation of immunoprecipitated RXRα by purified PKA; type: biochemical; settings: cells incubated with 10^-7 M ligand
T2 construct: host or cells: HEK293
T2 sequence (P19793 1-462): T1 sequence (P19793 1-462)
Protocol: Left panel: Cells were immunoprecipitated with anti-FLAG antibody, and the immunoprecipitates analyzed by SDS-PAGE and blotting with anti-PKA antibody. Right panel: Cells were immunoprecipitated with anti-PKA antibody, and the immunoprecipitates analyzed by SDS-PAGE and blotting with anti-FLAG antibody. B. Phosphorylation of RXRα by PKA. […] PKA I and PKC I indicate inhibitors of PKA and PKC, respectively.
RXRα-containing immunoprecipitates prepared with anti-Flag antibody were incubated with purified catalytically active PKA (Upstate Biotechnology) and […]; in addition, protein kinase A inhibitor or protein kinase C inhibitor was added to some reactions as indicated. The kinase reaction products were analyzed by SDS-PAGE.

For `CC(/C=C/[C@@H]1C[C@]1(C)c1ccc2c(c1)C(C)(C)CCC2(C)C)=C\C(=O)O` [AGN194204], the “protein kinase A activity associated with RXRα” value [1] was “significantly enhanced” and the “extent of RXRα phosphorylation by purified PKA” value [2] was “increased”.
